Measurements from patent US20240067631A1, “PYRAZOLE DERIVATIVES USEFUL AS NAMPT MODULATORS” (Cytokinetics, Inc., priority 2020, published 2024).

Target: human NAMPT (Homo sapiens (Human), UniProt P43490)
Assay: Human recombinant enzyme assay (NMN fluorescence biochemical assay)
Details: 6 nM human NAMPT, 60 min; for AC1.4 Human: concentration of compound that generates 40% higher activity over basal; for EC50: concentration that gives half-maximal activation
Method in brief: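 Recombinant human NAMPT (6 nM) with 2.5 mM ATP, […] PRPP and […] nicotinamide in HEPES pH 7.2 with DTT, CHAPS, NaCl, MgCl2; 60 min at ambient temperature. NMN derivatised with acetophenone/KOH/formic acid, fluorescence read at 355/460 nm. AC1.4 (40% above basal) and EC50 reported.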

Chain of human NAMPT (P43490 whole entry): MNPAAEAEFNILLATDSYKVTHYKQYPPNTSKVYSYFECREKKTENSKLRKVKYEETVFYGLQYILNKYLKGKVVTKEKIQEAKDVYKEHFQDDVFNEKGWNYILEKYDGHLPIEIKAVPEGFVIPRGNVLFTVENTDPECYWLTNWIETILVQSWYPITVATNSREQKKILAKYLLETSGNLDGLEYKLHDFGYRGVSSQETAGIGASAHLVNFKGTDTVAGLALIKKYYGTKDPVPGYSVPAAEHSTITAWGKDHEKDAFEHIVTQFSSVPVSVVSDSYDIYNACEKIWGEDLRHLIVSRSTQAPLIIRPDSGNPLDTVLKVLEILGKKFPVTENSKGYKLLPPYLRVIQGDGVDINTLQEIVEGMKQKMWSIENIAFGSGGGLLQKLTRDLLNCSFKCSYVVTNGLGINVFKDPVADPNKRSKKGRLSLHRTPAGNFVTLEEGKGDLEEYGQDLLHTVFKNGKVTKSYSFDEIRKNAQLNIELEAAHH

AC1.4 Human [µM]	EC50 [µM]	Structure (SMILES)
2.1125	23.1	Cc1nc(C(=O)NC2(c3ccccc3)COC2)nc(NCCc2cn[nH]c2)c1C [Compound 114, 4-((2-(1H-pyrazol-4-yl)ethyl)amino)-5,6-dimethyl-N-(3-phenyloxetan-3-yl)pyrimidine-2-carboxamide]
2.136	10.7	Cc1nc(C(=O)N2CCC2c2cccc(F)c2)nc(NCCc2cn[nH]c2)c1C (centres unmarked) [Compound 115, (4-((2-(1H-pyrazol-4-yl)ethyl)amino)-5,6-dimethylpyrimidin-2-yl)(2-(3-fluorophenyl)azetidin-1-yl)methanone]
2.2385	47.6	Cc1nc(C(=O)Nc2cc(F)cc(F)c2)nc(NCCc2cn[nH]c2)c1C [Compound 117, 4-((2-(1H-pyrazol-4-yl)ethyl)amino)-N-(3,5-difluorophenyl)-5,6-dimethylpyrimidine-2-carboxamide]
2.384	11.8	Cc1nc(C(=O)N[C@H](C)c2ccc(F)cn2)nc(NCCc2cn[nH]c2)c1C [Compound 118, (R)-4-((2-(1H-pyrazol-4-yl)ethyl)amino)-N-(1-(5-fluoropyridin-2-yl)ethyl)-5,6-dimethylpyrimidine-2-carboxamide]
32.854	47.2	Cc1nc(C(=O)N2CCC(C(F)(F)F)CC2)nc(NCCc2cn[nH]c2)c1C [Compound 119, (4-((2-(1H-pyrazol-4-yl)ethyl)amino)-5,6-dimethylpyrimidin-2-yl)(4-(trifluoromethyl)piperidin-1-yl)methanone]
2.443	15.2	Cc1nc(C(=O)NCc2ncccc2F)nc(NCCc2cn[nH]c2)c1C [Compound 120, 4-((2-(1H-pyrazol-4-yl)ethyl)amino)-N-((3-fluoropyridin-2-yl)methyl)-5,6-dimethylpyrimidine-2-carboxamide]
4.313	22	Cc1nc(C(=O)N2CC(C)(O)C2)nc(NCCc2cn[nH]c2)c1C [Compound 125, (4-((2-(1H-pyrazol-4-yl)ethyl)amino)-5,6-dimethylpyrimidin-2-yl)(3-hydroxy-3-methylazetidin-1-yl)methanone]
3.1455	13.4	Cc1nc(C(=O)N2CCC[C@@H]2c2ccccn2)nc(NCCc2cn[nH]c2)c1C [Compound 126, (R)-(4-((2-(1H-pyrazol-4-yl)ethyl)amino)-5,6-dimethylpyrimidin-2-yl)(2-(pyridin-2-yl)pyrrolidin-1-yl)methanone]
32.9385	60	Cc1nc(C(=O)N[C@H](C)c2cccnc2)nc(NCCc2cn[nH]c2)c1C [Compound 127, (R)-4-((2-(1H-pyrazol-4-yl)ethyl)amino)-5,6-dimethyl-N-(1-(pyridin-3-yl)ethyl)pyrimidine-2-carboxamide]
3.249	21.3	Cc1nc(C(=O)NCCc2cncc(F)c2)nc(NCCc2cn[nH]c2)c1C [Compound 129, 4-((2-(1H-pyrazol-4-yl)ethyl)amino)-N-(2-(5-fluoropyridin-3-yl)ethyl)-5,6-dimethylpyrimidine-2-carboxamide]
3.487	10.8	Cc1cccc([C@H]2CCCN2C(=O)c2nc(C)c(C)c(NCCc3cn[nH]c3)n2)n1 [Compound 131, (R)-(4-((2-(1H-pyrazol-4-yl)ethyl)amino)-5,6-dimethylpyrimidin-2-yl)(2-(6-methylpyridin-2-yl)pyrrolidin-1-yl)methanone]
3.5055	13.1	Cc1nc(C(=O)N2CCC2c2ccccc2)nc(NCCc2cn[nH]c2)c1C (centres unmarked) [Compound 132, (4-((2-(1H-pyrazol-4-yl)ethyl)amino)-5,6-dimethylpyrimidin-2-yl)(2-phenylazetidin-1-yl)methanone]
3.5315	28.9	Cc1nc(C(=O)NCc2ccncc2)nc(NCCc2cn[nH]c2)c1C [Compound 133, 4-((2-(1H-pyrazol-4-yl)ethyl)amino)-5,6-dimethyl-N-(pyridin-4-ylmethyl)pyrimidine-2-carboxamide]
3.7335	17.5	Cc1nc(C(=O)N[C@H]2C[C@@H](c3ccccc3)C2)nc(NCCc2cn[nH]c2)c1C [Compound 135, 4-((2-(1H-pyrazol-4-yl)ethyl)amino)-5,6-dimethyl-N-((1s,3s)-3-phenylcyclobutyl)pyrimidine-2-carboxamide]
3.794	34.5	Cc1nc(C(=O)N[C@@H](C)c2ccccn2)nc(NCCc2cn[nH]c2)c1C [Compound 137, (S)-4-((2-(1H-pyrazol-4-yl)ethyl)amino)-5,6-dimethyl-N-(1-(pyridin-2-yl)ethyl)pyrimidine-2-carboxamide]
4.125	30.7	Cc1nc(C(=O)N2CCOCC2C(F)(F)F)nc(NCCc2cn[nH]c2)c1C (centres unmarked) [Compound 138, (4-((2-(1H-pyrazol-4-y)ethyl)amino)-5,6-dimethylpyrimidin-2-yl)(3-(trifluoromethyl)morpholino)methanone]
3.809	28.5	Cc1cccc(F)c1NC(=O)c1nc(C)c(C)c(NCCc2cn[nH]c2)n1 [Compound 139, 4-((2-(1H-pyrazol-4-yl)ethyl)amino)-N-(2-fluoro-6-methylphenyl)-5,6-dimethylpyrimidine-2-carboxamide]
4.0885	18.4	Cc1nc(C(=O)Nc2ccccc2)nc(NCCc2cn[nH]c2)c1C [Compound 140, 4-((2-(1H-pyrazol-4-yl)ethyl)amino)-5,6-dimethyl-N-phenylpyrimidine-2-carboxamide]
4.3845	31.8	Cc1nc(C(=O)N2CC3(C2)C(=O)Nc2ccccc23)nc(NCCc2cn[nH]c2)c1C [Compound 142, 1-(4-((2-(1H-pyrazol-4-yl)ethyl)amino)-5,6-dimethylpyrimidine-2-carbonyl)spiro[azetidine-3,3′-indolin]-2′-one]

The next lines start with the compound.

Structure (SMILES)	AC1.4 Human [µM]	EC50 [µM]
Cc1nc(C(=O)NCCc2ccncc2F)nc(NCCc2cn[nH]c2)c1C [Compound 113, 4-((2-(1H-pyrazol-4-yl)ethyl)amino)-N-(2-(3-fluoropyridin-4-yl)ethyl)-5,6-dimethylpyrimidine-2-carboxamide]	2.084	18.3
Cc1nc(C(=O)N[C@H](C)C2CCCCC2)nc(NCCc2cn[nH]c2)c1C [Compound 116, (R)-4-((2-(1H-pyrazol-4-yl)ethyl)amino)-N-(1-cyclohexylethyl)-5,6-dimethylpyrimidine-2-carboxamide]	2.9705	29.6
Cc1nc(C(=O)NC(C)(C)c2cccnc2)nc(NCCc2cn[nH]c2)c1C [Compound 121, 4-((2-(1H-pyrazol-4-yl)ethyl)amino)-5,6-dimethyl-N-(2-(pyridin-3-yl)propan-2-yl)pyrimidine-2-carboxamide]	2.5075	22.1
Cc1nc(C(=O)NCC(O)(c2ccccc2)C(F)(F)F)nc(NCCc2cn[nH]c2)c1C (centres unmarked) [Compound 122, 4-((2-(1H-pyrazol-4-yl)ethyl)amino)-5,6-dimethyl-N-(3,3,3-trifluoro-2-hydroxy-2-phenylpropyl)pyrimidine-2-carboxamide]	2.574	16.7
Cc1nc(C(=O)N2CC3(CCC3)C2)nc(NCCc2cn[nH]c2)c1C [Compound 123, (4-((2-(1H-pyrazol-4-yl)ethyl)amino)-5,6-dimethylpyrimidin-2-yl)(2-azaspiro[3.3]heptan-2-yl)methanone]	2.581	26.4
COc1cccnc1[C@@H](C)NC(=O)c1nc(C)c(C)c(NCCc2cn[nH]c2)n1 [Compound 124, (R)-4-((2-(1H-pyrazol-4-yl)ethyl)amino)-N-(1-(3-methoxypyridin-2-yl)ethyl)-5,6-dimethylpyrimidine-2-carboxamide]	2.6905	12
Cc1nc(C(=O)NCC(O)C(F)(F)F)nc(NCCc2cn[nH]c2)c1C (centres unmarked) [Compound 128, 4-((2-(1H-pyrazol-4-yl)ethyl)amino)-5,6-dimethyl-N-(3,3,3-trifluoro-2-hydroxypropyl)pyrimidine-2-carboxamide]	3.235	28
Cc1ccc(C(C)NC(=O)c2nc(C)c(C)c(NCCc3cn[nH]c3)n2)s1 (centres unmarked) [Compound 130, 4-((2-(1H-pyrazol-4-yl)ethyl)amino)-5,6-dimethyl-N-(1-(5-methylthiophen-2-yl)ethyl)pyrimidine-2-carboxamide]	3.2975	41
Cc1nc(C(=O)NC(c2ccc(F)c(F)c2)c2nccn2C)nc(NCCc2cn[nH]c2)c1C (centres unmarked) [Compound 134, 4-((2-(1H-pyrazol-4-yl)ethyl)amino)-N-((3,4-difluorophenyl)(1-methyl-1H-imidazol-2-yl)methyl)-5,6-dimethylpyrimidine-2-carboxamide]	3.578	26.2
Cc1nc(C(=O)NC(c2cccnc2)C(F)(F)F)nc(NCCc2cn[nH]c2)c1C (centres unmarked) [Compound 136, 4-((2-(1H-pyrazol-4-yl)ethyl)amino)-5,6-dimethyl-N-(2,2,2-trifluoro-1-(pyridin-3-yl)ethyl)pyrimidine-2-carboxamide]	3.778	50.2
Cc1nc(C(=O)NCCS(=O)(=O)Cc2ccccc2)nc(NCCc2cn[nH]c2)c1C [Compound 141, 4-((2-(1H-pyrazol-4-yl)ethyl)amino)-N-(2-(benzylsulfonyl)ethyl)-5,6-dimethylpyrimidine-2-carboxamide]	3.8305	20.3
Cc1nc(C(=O)NCCC(C)(C)C(F)(F)F)nc(NCCc2cn[nH]c2)c1C [Compound 143, 4-((2-(1H-pyrazol-4-yl)ethyl)amino)-5,6-dimethyl-N-(4,4,4-trifluoro-3,3-dimethylbutyl)pyrimidine-2-carboxamide]	4.433	46
